Reference: patent publication US20240150293A1, “SPIROCYCLOHEXANE DERIVATIVES, PHARMACEUTICAL COMPOSITIONS CONTAINING THEM AND THEIR USES AS ANTI-APOPTOTIC INHIBITORS” (LES LABORATOIRES SERVIER, priority 2021, published 2024)
pKi: −log10 of the molar value.

What follows are compounds tested against Mcl-1 protein (UniProtKB Q07820) (Homo sapiens (Human), UniProt Q07820) (assay: Inhibition of Mcl-1 by the fluorescence polarisation assay (Example A, Method A)). Conditions: fluorescence polarization assay.
Chain of Mcl-1 protein (Q07820 whole entry): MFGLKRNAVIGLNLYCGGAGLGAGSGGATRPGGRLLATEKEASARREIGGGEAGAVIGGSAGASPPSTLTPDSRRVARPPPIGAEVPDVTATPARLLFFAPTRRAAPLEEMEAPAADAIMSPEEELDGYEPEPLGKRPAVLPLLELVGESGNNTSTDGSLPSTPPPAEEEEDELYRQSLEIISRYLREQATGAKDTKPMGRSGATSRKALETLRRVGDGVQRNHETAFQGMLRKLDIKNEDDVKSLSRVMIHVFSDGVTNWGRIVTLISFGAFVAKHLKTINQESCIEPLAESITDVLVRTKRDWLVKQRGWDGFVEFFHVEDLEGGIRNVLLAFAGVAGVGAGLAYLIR
Type: binding
Protocol: The relative binding potency of each compound was determined via Fluorescence Polarisation (FP). The method utilised a Fluorescein labelled ligand (Fluorescein-βAla-Ahx-A-REIGAQLRRMADDLNAQY-OH; MW 2,765) which binds to the Mcl-1 protein (such that Mcl-1 corresponds to the UniProtKB® primary accession number: Q07820) leading to an increased anisotropy measured in milli-polarisation (mP) units using a reader. The addition of a compound which binds competitively to the same site as the ligand will result in a greater proportion of unbound ligand in the system indicated by a decrease in mP units.
An 11 point serial dilution of each compound was prepared in DMSO and 2 μl transferred into flat bottomed, low binding, 384-well plate (final DMSO concentration 5%). 38 μl of buffer containing the Fluorescein labelled ligand (final concentration 1 nM) and Mcl-1 protein (final concentration 5 nM) was then added. Buffer components were 10 mM 4-(2-hydroxyethyl)-1-piperazineethanesulfonic acid [HEPES], 150 mM NaCl, pH 7.4 with the addition of 0.05% Tween 20.
Assay plates were incubated for 2 hours at room temperature before FP was measured on a […] Synergy Neo reader ([…], Cut off 510 nm) and mP units calculated. The binding of increasing doses of test compound was expressed as a percentage reduction in mP compared to a window established between ‘5% DMSO only’ and ‘100% inhibition’ controls. 11-point dose response curves were plotted with XL-Fit software using a 4-Parameter Logistic Model (Sigmoidal Dose-Response Model) and the inhibitory concentrations that gave a 50% reduction in mP (IC50) were determined. The Ki values were determined from the IC50 values according to Cer et al, Nucleic Acids Res, 2009, 37 (WebServer issue): W441-W445. Inhibition constants (Ki) are determined from complete binding inhibition curves (cKi) or from estimated from incomplete binding inhibition curves (eKi) in most cases due to low activity.

Row | SMILES | pKi
1 | O=C(O)[C@]1(Nc2cccc(Cl)c2)CC[C@@]2(CC1)c1ccccc1CC2[C@H]1C[C@@H]1COc1ccccc1 (relative stereo) [Example 111, (1r,4r)-4-(3-chloroanilino)-2′-[(1R*,2S*)-2-(phenoxymethyl)cyclopropyl]-2′,3′-dihydrospiro[cyclohexane-1,1′-indene]-4-carboxylic acid] | 5.01
2 | O=C(O)[C@]1(Nc2cccc(Cl)c2)CC[C@]2(CC1)C(C1=CCN(Cc3ccccc3)CC1)=Cc1ccccc12 [Example 360, (1r,4r)-2′-(1-benzyl-1,2,3,6-tetrahydropyridin-4-yl)-4-(3-chloroanilino)spiro[cyclohexane-1,1′-indene]-4-carboxylic acid] | 4.76
3 | O=C(O)[C@]1(Nc2cccc(Br)c2)CC[C@@]2(CC1)C(c1ccccc1)=Cc1ccccc12 [Example 209, (1r,4r)-4-(3-bromoanilino)-2′-phenylspiro[cyclohexane-1,1′-indene]-4-carboxylic acid] | 4.46
4 | O=C(O)[C@]1(Nc2cccc(Cl)c2)CC[C@]2(CC1)C(CC(COc1ccnc3ccsc13)COc1ccnc3ccsc13)=Cc1ccccc12 [Example 492, (1r,4r)-4-(3-chloroanilino)-2′-(3-[(thieno[3,2-b]pyridin-7-yl)oxy]-2-{[(thieno[3,2-b]pyridin-7-yl)oxy]methyl}propyl)spiro[cyclohexane-1,1′-indene]-4-carboxylic acid] | 7.03
5 | Cc1cnccc1OCCCOC1=Cc2ccccc2[C@]12CC[C@@](Nc1cccc(Br)c1)(C(=O)O)CC2 [Example 193, (1s,4s)-4-(3-bromoanilino)-2′-{3-[(3-methylpyridin-4-yl)oxy]propoxy}spiro[cyclohexane-1,1′-indene]-4-carboxylic acid] | 6.27
6 | O=C(O)[C@]1(Nc2cccc(Cl)c2)CC[C@]2(CC1)C(C1CN(CC(F)(F)F)C1)=Cc1ccccc12 [Example 102, (1r,4r)-4-(3-chloroanilino)-2′-[1-(2,2,2-trifluoroethyl)azetidin-3-yl]spiro[cyclohexane-1,1′-indene]-4-carboxylic acid] | 4.97
7 | O=C(O)[C@]1(Nc2cccc(Cl)c2)CC[C@]2(CC1)C(c1cccc(Oc3ccncc3)c1)=Cc1ccccc12 [Example 377, (1s,4s)-4-(3-chloroanilino)-2′-{3-[(pyridin-4-yl)oxy]phenyl}spiro[cyclohexane-1,1′-indene]-4-carboxylic acid] | 7.13
8 | CC(C)C(COc1ccncc1)CC1Cc2ccccc2[C@]12CC[C@@](Nc1cccc(Cl)c1)(C(=O)O)CC2 (single isomer, unassigned) [Example 534, (1r,4r)-4-(3-chloroanilino)-2′-(3-methyl-2-{[(pyridin-4-yl)oxy]methyl}butyl)-2′,3′-dihydrospiro[cyclohexane-1,1′-indene]-4-carboxylic acid] | 5.82
9 | Cc1cncnc1OCCCC1=Cc2ccccc2[C@]12CC[C@@](Nc1cccc(Br)c1)(C(=O)O)CC2 [Example 456, (1r,4r)-4-(3-bromoanilino)-2′-{3-[(5-methylpyrimidin-4-yl)oxy]propyl}spiro[cyclohexane-1,1′-indene]-4-carboxylic acid] | 6.98
10 | O=C(O)[C@]1(Nc2cccc(Cl)c2)CC[C@]2(CC1)C(Br)=Cc1c(Cl)cccc12 [Example 137, (1s,4s)-2′-bromo-4′-chloro-4-(3-chloroanilino)spiro[cyclohexane-1,1′-indene]-4-carboxylic acid] | 6.72
11 | O=C(O)[C@]1(Nc2cccc(Cl)c2)CC[C@@]2(CC1)c1ccccc1CC2c1ccc(OCc2ccccc2)cc1 (single isomer, unassigned) [Example 353, (1r,4r)-2′-[4-(benzyloxy)phenyl]-4-(3-chloroanilino)-2′,3′-dihydrospiro[cyclohexane-1,1′-indene]-4-carboxylic acid] | 5.06
12 | O=C(O)[C@]1(Nc2cccc(Br)c2)CC[C@]2(CC1)C(I)=Cc1ccccc12 [Example 77, (1s,4s)-4-(3-bromoanilino)-2′-iodospiro[cyclohexane-1,1′-indene]-4-carboxylic acid] | 6.64
13 | COc1cccc(C2=Cc3ccccc3[C@]23CC[C@@](Nc2cccc(Cl)c2)(C(=O)O)CC3)c1C [Example 299, (1s,4s)-4-(3-chloroanilino)-2′-(3-methoxy-2-methylphenyl)spiro[cyclohexane-1,1′-indene]-4-carboxylic acid] | 6.39
14 | O=C(O)[C@]1(Nc2cccc(Br)c2)CC[C@@]2(CCc3ccc(O)cc32)CC1 [Example 63, (1r,4s)-4-(3-bromoanilino)-6′-hydroxy-2′,3′-dihydrospiro[cyclohexane-1,1′-indene]-4-carboxylic acid] | 6.62
15 | CN(c1cccc(Cl)c1)[C@]1(C(=O)O)CC[C@]2(C=Cc3ccccc32)CC1 [Example 73, (1r,4r)-4-[(3-chlorophenyl)(methyl)amino]spiro[cyclohexane-1,1′-indene]-4-carboxylic acid] | 4.22
16 | O=C(O)[C@]1(Nc2cccc(Cl)c2)CC[C@]2(CC1)C(COCCc1ccc(Cl)cc1)=Cc1ccccc12 [Example 420, (1s,4s)-4-(3-chloroanilino)-2′-{[2-(4-chlorophenyl)ethoxy]methyl}spiro[cyclohexane-1,1′-indene]-4-carboxylic acid] | 5.96
17 | O=C(O)[C@]1(Nc2cccc(Cl)c2)CC[C@@]2(CC1)c1ccccc1CC2c1cccc(Cl)c1 (single isomer, unassigned) [Example 343, (1r,4r)-4-(3-chloroanilino)-2′-(3-chlorophenyl)-2′,3′-dihydrospiro[cyclohexane-1,1′-indene]-4-carboxylic acid] | 6.01
18 | O=C(NCCc1ccccc1)C1Cc2ccccc2[C@]12CC[C@@](Nc1cccc(Cl)c1)(C(=O)O)CC2 (single isomer, unassigned) [Example 406, (1r,4r)-4-(3-chloroanilino)-2′-[(2-phenylethyl)carbamoyl]-2′,3′-dihydrospiro[cyclohexane-1,1′-indene]-4-carboxylic acid] | 5.21
19 | O=C(O)[C@]1(Nc2cccc(Cl)c2)CC[C@@]2(CC1)c1ccccc1CC2c1ccc(Oc2ccncc2)cc1 (single isomer, unassigned) [Example 364, (1r,4r)-4-(3-chloroanilino)-2′-{4-[(pyridin-4-yl)oxy]phenyl}-2′,3′-dihydrospiro[cyclohexane-1,1′-indene]-4-carboxylic acid] | 6.34
20 | O=C(O)[C@]1(Nc2cccc(Cl)c2)CC[C@@]2(CC1)c1ccccc1CC2C1CCCC1 (single isomer, unassigned) [Example 92, (1r,4r)-4-(3-chloroanilino)-2′-cyclopentyl-2′,3′-dihydrospiro[cyclohexane-1,1′-indene]-4-carboxylic acid] | 5.13
21 | O=C(O)[C@]1(Nc2cccc(Cl)c2)CC[C@]2(CC1)C(=C1CCCC1)Cc1ccccc12 [Example 93, (1r,4r)-4-(3-chloroanilino)-2′-cyclopentylidene-2′,3′-dihydrospiro[cyclohexane-1,1′-indene]-4-carboxylic acid] | 5.14
22 | COc1cc(OCCC2Cc3ccccc3[C@]23CC[C@@](Nc2cccc(Cl)c2)(C(=O)O)CC3)ccn1 (stereo partly drawn) [Example 174, (1r,4r)-4-(3-chloroanilino)-2′-{2-[(2-methoxypyridin-4-yl)oxy]ethyl}-2′,3′-dihydrospiro[cyclohexane-1,1′-indene]-4-carboxylic acid] | 6.86
23 | O=C(O)[C@]1(Nc2cccc(Cl)c2)CC[C@]2(CC1)C(c1cccc(Cl)c1)=Cc1ccccc12 [Example 334, (1s,4s)-4-(3-chloroanilino)-2′-(3-chlorophenyl)spiro[cyclohexane-1,1′-indene]-4-carboxylic acid] | 5.70
24 | CC1(C)CCc2ncnc(OCCCC3Cc4ccccc4[C@]34CC[C@@](Nc3cccc(Cl)c3)(C(=O)O)CC4)c21 (stereo partly drawn) [Example 466, (1r,4r)-4-(3-chloroanilino)-2′-{3-[(5,5-dimethyl-6,7-dihydro-5H-cyclopenta[d]pyrimidin-4-yl)oxy]propyl}-2′,3′-dihydrospiro[cyclohexane-1,1′-indene]-4-carboxylic acid] | 7.25
25 | COc1cc(OC)cc([C@@H]2Cc3ccccc3[C@]23CC[C@@](Nc2cccc(Cl)c2)(C(=O)O)CC3)c1 [Example 336, (1r,2′S,4S)-4-(3-chloroanilino)-2′-(3,5-dimethoxyphenyl)-2′,3′-dihydrospiro[cyclohexane-1,1′-indene]-4-carboxylic acid] | 5.61
26 | O=C(O)[C@]1(Nc2cccc(Cl)c2)CC[C@@]2(CC1)c1ccccc1CC2CCOc1cccc2[nH]ccc12 (stereo partly drawn) [Example 185, (1r,4r)-4-(3-chloroanilino)-2′-{2-[(1H-indol-4-yl)oxy]ethyl}-2′,3′-dihydrospiro[cyclohexane-1,1′-indene]-4-carboxylic acid] | 7.13
27 | O=C(O)[C@]1(Nc2cccc(Cl)c2)CC[C@@]2(CC1)c1ccccc1CC2OCCCc1ccccc1 (stereo partly drawn) [Example 400, (1s,4s)-4-(3-chloroanilino)-2′-(3-phenylpropoxy)-2′,3′-dihydrospiro[cyclohexane-1,1′-indene]-4-carboxylic acid] | 6.04
